Results from the supplement of paper PMC13380429.

Legend:
Settings in all cases: 72 h
Caco-2 [1] = experiment: cell viability relative to DMSO; higher = less toxic
Calu-3 [2] = experiment: as above
HepG2 [3] = experiment: as above
U2OS [4] = experiment: as above
Caco-2 [5] = experiment: relative viability EC50 (midpoint between 100% and the lowest measured viability); higher = less toxic
Calu-3 [6] = experiment: as above
HepG2 [7] = experiment: as above
U2OS [8] = experiment: as above
Caco-2 [9] = experiment: drug sensitivity score (DSS) for viability; higher = more toxic; extreme values may be limits of the assay
Calu-3 [10] = experiment: as above
HepG2 [11] = experiment: as above
U2OS [12] = experiment: as above
Vero E6 [13] = experiment: cell viability relative to DMSO; higher = less toxic
Vero E6 [14] = experiment: drug sensitivity score (DSS) for viability; higher = more toxic; extreme values may be limits of the assay
Vero E6 [15] = experiment: relative viability EC50 (midpoint between 100% and the lowest measured viability); higher = less toxic

| Compound | cell viability (Caco-2 [1]; 1 nM) | cell viability (Caco-2 [1]; 10 nM) | cell viability (Caco-2 [1]; 100 nM) | cell viability (Caco-2 [1]; 1000 nM) | cell viability (Caco-2 [1]; 10000 nM) | cell viability (Calu-3 [2]; 1 nM) | cell viability (Calu-3 [2]; 10 nM) | cell viability (Calu-3 [2]; 100 nM) | cell viability (Calu-3 [2]; 1000 nM) | cell viability (Calu-3 [2]; 10000 nM) | cell viability (HepG2 [3]; 1 nM) | cell viability (HepG2 [3]; 10 nM) | cell viability (HepG2 [3]; 100 nM) | cell viability (HepG2 [3]; 1000 nM) | cell viability (HepG2 [3]; 10000 nM) | cell viability (U2OS [4]; 1 nM) | cell viability (U2OS [4]; 10 nM) | cell viability (U2OS [4]; 100 nM) | cell viability (U2OS [4]; 1000 nM) | cell viability (U2OS [4]; 10000 nM) | relative viability EC50 (Caco-2 [5]) | relative viability EC50 (Calu-3 [6]) | relative viability EC50 (HepG2 [7]) | relative viability EC50 (U2OS [8]) | drug sensitivity score (Caco-2 [9]) | drug sensitivity score (Calu-3 [10]) | drug sensitivity score (HepG2 [11]) | drug sensitivity score (U2OS [12]) | cell viability (Vero E6 [13]; 1 nM) | cell viability (Vero E6 [13]; 10 nM) | cell viability (Vero E6 [13]; 100 nM) | cell viability (Vero E6 [13]; 1000 nM) | cell viability (Vero E6 [13]; 10000 nM) | drug sensitivity score (Vero E6 [14]) | relative viability EC50 (Vero E6 [15]) |
| --- | --- | --- | --- | --- | --- | --- | --- | --- | --- | --- | --- | --- | --- | --- | --- | --- | --- | --- | --- | --- | --- | --- | --- | --- | --- | --- | --- | --- | --- | --- | --- | --- | --- | --- | --- |
| O=C(OCCO)c1ccccc1O [2-hydroxyethyl-salicylate] | 114% | 108% | 100% | 104% | 93.3% | 97.5% | 95.5% | 108% | 108% | 94.8% | 103% | 99.8% | 108% | 100% | 89% | 99.2% | 102% | 98.6% | 104% | 97.6% | > 10 µM | > 10 µM | > 10 µM | > 10 µM | 0 | 0 | 0 | 0 |  |  |  |  |  |  |  |
| CCCNCC(O)COc1ccccc1C(=O)CCc1ccccc1 (configuration not stated) [propafenone] | 94.7% | 89.5% | 98.4% | 92.8% | 88.9% | 105% | 95.3% | 103% | 93.7% | 99.7% | 99.3% | 94% | 96.4% | 99.4% | 75.1% | 99.1% | 93.1% | 95.6% | 94.3% | 92.5% | > 10 µM | > 10 µM | > 10 µM | > 10 µM | 0 | 0 | 1 | 0 | 106% | 108% | 106% | 92.2% | 64.9% | 2.9 |  |
| CN(C)CCCn1cc(C2=C(c3c[nH]c4ccccc34)C(=O)NC2=O)c2ccccc21 | 91% | 90.5% | 94.1% | 98% | 89.3% | 105% | 94.2% | 92% | 107% | 68.6% | 94.7% | 96.2% | 102% | 95.2% | 31% | 98.8% | 103% | 96.5% | 101% | 70.8% | > 10 µM |  | 2.6 µM |  | 0 | 1.1 | 4.5 | 1.2 | 101% | 95.2% | 98.3% | 96.3% | 68.8% | 2 |  |
| CCC(O)(CC(N)=O)c1ccccc1 (configuration not stated) [3-hydroxy-3-phenylpentanamide] | 96.1% | 106% | 102% | 100% | 95.8% | 98.2% | 106% | 89.4% | 103% | 108% | 95.9% | 93% | 107% | 100% | 98.1% | 95% | 99% | 98.3% | 104% | 99% | > 10 µM | > 10 µM | > 10 µM | > 10 µM | 0 | 0 | 0 | 0 |  |  |  |  |  |  |  |
| CC(=O)c1ccc2c(c1)[C@@H]1C=CC[C@@H]1[C@H](c1cc3c(cc1Br)OCO3)N2 [G-1] | 96.8% | 93.4% | 102% | 98% | 58.2% |  |  |  |  |  | 95.4% | 88.4% | 111% | 105% | 36.4% | 100% | 98.2% | 94.3% | 102% | 49.7% |  |  | 3.53 µM | 3.38 µM | 2.4 |  | 3.1 | 2.5 | 102% | 93.3% | 95.8% | 84.8% | 37.1% | 5.8 | 1.57 µM |
| Cc1cc(O)cc2c1O[C@](C)(CCC[C@H](C)CCC[C@H](C)CCCC(C)C)CC2 [D-delta-tocopherol] | 102% | 109% | 99.8% | 103% | 99.1% | 89.4% | 96.6% | 84.8% | 93.8% | 79.4% | 114% | 110% | 116% | 103% | 99.4% | 97.7% | 103% | 96.9% | 106% | 98% | > 10 µM | > 10 µM | > 10 µM | > 10 µM | 0 | 0 | 0 | 0 |  |  |  |  |  |  |  |
| CCc1ccc(C2=CC(C)(C)Sc3ccc(C#Cc4ccc(C(=O)O)cc4)cc32)cc1 | 100% | 103% | 97.7% | 100% | 79.4% | 90.9% | 113% | 95.5% | 94.6% | 95.2% | 94.7% | 89.7% | 83.7% | 80.6% | 90.1% | 101% | 102% | 96.6% | 104% | 93.2% | > 10 µM | > 10 µM | > 10 µM | > 10 µM | 0.6 | 0 | 2.9 | 0 | 98.5% | 89.8% | 81.2% | 74.9% | 80.6% | 6.1 |  |
| NC(=O)c1ccc(I)c([N+](=O)[O-])c1 [iniparib] |  |  |  |  |  | 110% | 99% | 103% | 102% | 114% | 91.2% | 106% | 107% | 94.2% | 106% | 104% | 95.8% | 96.4% | 104% | 98.4% |  | > 10 µM | > 10 µM | > 10 µM |  | 0 | 0 | 0 |  |  |  |  |  |  |  |
